Measurements: patent publication US20040023884A1, “Biologically active peptides from functional domains of bactericidal/permeability-increasing protein and uses thereof” (priority 1993, published 2004)

How the values were obtained:
[1] = system: ATIII/heparin complexes; assay: Thrombin inactivation by ATIII/heparin complexes (Chromostrate anti-thrombin assay); assay type: biochemical; settings: 1.0 to 100 μg/mL
Experimental: BPI functional domain peptides BPI.2, BPI.3, BPI.4, BPI.5, BPI.6, and BPI.8, along with rBPI23 as a positive control, were assayed for their effect on thrombin inactivation by ATIII/heparin complexes according to the method of Example 3 in copending and co-assigned U.S. patent application Ser. No. 08/093,202, filed Jul. 15, 1993, incorporated by reference. Specifically, a Chromostrate™ anti-thrombin assay kit (Organon Teknika Corp., Durham, N.C.) was used to examine the inhibition of purified thrombin by preformed ATIII/heparin complexes in plasma.
Briefly, the assay was performed in 96 well microtiter plates in triplicate with a final volume per well of 200 μL. Varying concentrations of the BPI functional domain peptides ranging from 1.0 μg/mL to 100 μg/mL were assayed to determine their effect on thrombin inhibition in the presence of pre-formed ATIII/heparin complexes. The order of addition of assay components was as follows: 1) a dilution series of rBPI23 or BPI functional domain peptides or thaumatin as a control protein, with final concentrations of 100, 50, 25, 10 and 1 μg/well, diluted in PBS in a final volume of 50 μL; 2) 50 μL plasma diluted 1:100 in a buffer supplied by the manufacturer, 3) 50 μl thrombin at 1 nKat/mL in a buffer supplied by the manufacturer, and 4) 50 μL chromogenic substrate at a concentration of 1 μmol/mL in water. The reaction was allowed to proceed for 10 minutes at 37° C. and stopped with the addition of 50 μL 0.1M citric acid. The colorimetric reaction was quantitated on a microplate reader as described in Example 3.

[2] = 3H-heparin binding assay (affinity and capacity); settings: for Heparin Capacity: heparin bound at saturation; for Kd: read-out: Heparin Affinity
Method in brief: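 Bound 3H-heparin was counted by liquid scintillation after 1 h incubation at 4 °C with fragments immobilised on PVDF-bottomed wells, then washing in blocking buffer. Signal was corrected for BSA-related background, and varying amounts of rBPI23 were used as positive control.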

[3] = In vivo APTT in heparinized rats; parameters: species or system Sprague-Dawley rats; settings: 100 U/kg heparin i.v., test protein 5 minutes later, blood 2 minutes after
Experimental: The in vivo effect of exemplary BPI combination peptides on APTT in heparinized rats was determined and compared with the in vivo effect of rBPI23. APTT is lengthened by the presence of endogenous or exogenous inhibitors of thrombin formation, such as therapeutically administered heparin. Agents which neutralize the anti-coagulant effects of heparin will reduce the APTT as measured by this test. Sprague-Dawley rats housed under NIH guidelines were administered with 100 U/kg heparin by bolus intravenous injections via the animals' tail vein followed 5 minutes later by administration of varying amounts of test or control protein as compared with rBPI23. The APTT was then determined from blood samples collected from the abdominal aorta 2 minutes after the administration of the test or control protein. The APTT of untreated animals, as well as animals treated only with a BPI peptide, was also determined.

[4] = system: E. coli 0111:B4 (smooth) bacteria; assay: Radial diffusion bactericidal assay, E. coli 0111:B4; assay type: cell-based; settings: radial diffusion; PROBIT analysis; E. coli O111:B4 (smooth)
[5] = system: endotoxin (e.g. E. coli 01:B4); assay: Mouse experimental endotoxemia model; parameters: species or system mice; settings: in vivo
Experimental: BPI functional domain peptides are tested for their efficacy in a mouse experimental endotoxemia model. Groups of at least 15 mice are administered an intravenous injection of endotoxin (e.g. E. coli 01:B4, Sigma Chemical Co., St. Louis, Mo.) at a LD90 dosage (e.g., 40 mg/kg). This is followed by a second intravenous injection of the test peptide in varying concentrations from about 0.1 mg/kg to about 100 mg/kg, preferably in the range of about 1 to 50 mg/kg. Injections of buffer without added peptide are used in negative control mice. The animals are observed for 7 days and mortality recorded. The efficacy of the peptides of this invention is measured by a decrease in endotoxemia-associated mortality in peptide-injected mice as compared with control mice.

[6] = system: Staphylococcus aureus; assay: Radial diffusion bactericidal assay, Staphylococcus aureus; assay type: cell-based; settings: radial diffusion; PROBIT analysis; S. aureus
[7] = system: rough mutant E. coli J5 bacteria; assay: Radial diffusion bactericidal assay, E. coli J5; assay type: cell-based; settings: radial diffusion; PROBIT analysis; E. coli J5 (rough)
Method in brief: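 Log-phase bacteria, washed in 10 mM sodium phosphate pH 7.4, were seeded at 4×10^6 CFU/mL in underlayer agarose. BPI fragments (5 or 10 μL) went into 3 mm wells for 3 h at 37° C., then overlayer agarose was added. After overnight 37° C. incubation, clearing zones were measured by micrometer.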

[8] = system: E. coli 0113 LPS; assay: Limulus Amoebocyte Lysate (LAL) inhibition assay; assay type: biochemical; settings: alanine variant relative to BPI.2
Method in brief: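 BPI proteolytic fragments incubated with E. coli 0113 LPS (4 ng/mL final) for 3 h at 37 °C, then diluted in D-PBS to 200 pg/mL LPS for chromogenic LAL. Lysate 25 min, substrate 20–30 min at room temperature, acetic acid stop; OD405 expressed as percent LPS inhibition.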

[9] = system: E. coli O86a:K61; assay: Radial diffusion bactericidal assay, E. coli O86a:K61; assay type: cell-based; settings: FIG. 11i

| Substance | heparin neutralization effect (in words) [1] | cpm ^3H-Heparin bound ([2]; 100 picomoles of each fragment per well, saturating 3H-heparin 20 μg/mL, mean of duplicate wells ± range) | APTT in heparinized rats (in words) [3] | pmol added to well to achieve a 30 mm^2 bactericidal zone, E. coli O111:B4 [4] | Heparin Capacity [2] [ng] | Kd [2] [nM] | activity in the murine endotoxemia model (in words) [5] | pmol added to well to achieve a 30 mm^2 bactericidal zone, S. aureus [6] | pmol added to well to achieve a 30 mm^2 bactericidal zone, E. coli J5 [7] | LAL (relative difference) [8] | bactericidal activity (in words) [9] |
| --- | --- | --- | --- | --- | --- | --- | --- | --- | --- | --- | --- |
| thaumatin [reference compound] | no neutralizing effect | 7,432 ± 83 cpm | no effect on APTT times in heparinized animals |  |  |  |  |  |  |  |  |
| KWKAQFRFLKKSKVGWLILLFHKK [BPI.102] |  |  |  | 697,655.78 pmol | 535.2 | 4610 | active in this murine model | b (no detectable activity up to 5 μg/well) | 13,814.12 pmol |  |  |
| IKISGKWKAAKRFLK [BPI.23] |  |  |  | 14,445.00 pmol | 285.0 | 693 |  |  | 1,330.40 pmol | = (no difference in the LAL assay) | showed bactericidal activity |
